Assay results taken from patent US11130780B2, “Inhibitors of growth factor activation enzymes” (Washington University, priority 2015, dated 2021).
Several values for one entry are separate records, joined by “and”; a condition that tells them apart may be missing. Identical values can stand only once. Like-named read-outs stand apart in the source and are kept apart here.

Legend:
Type in all cases: biochemical
[1] = target: T1, matriptase (Homo sapiens, UniProt Q9Y5Y6); experiment: Fluorescent kinetic enzyme inhibitor assay of matriptase; conditions: Fluorogenic Assay
T1 construct: Charles Craik, UCSF (obtained from another laboratory)
T1 sequence (Q9Y5Y6 615-855 limits assumed): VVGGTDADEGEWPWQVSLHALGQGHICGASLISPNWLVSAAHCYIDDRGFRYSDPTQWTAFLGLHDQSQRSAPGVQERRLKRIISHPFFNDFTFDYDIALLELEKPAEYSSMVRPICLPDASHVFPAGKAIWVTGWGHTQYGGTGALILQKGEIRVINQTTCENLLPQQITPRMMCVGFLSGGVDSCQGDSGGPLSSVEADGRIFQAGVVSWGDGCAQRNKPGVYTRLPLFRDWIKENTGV
Description: (§1) Inhibitors (11-pt serial dilutions, 0-20 μM final concentration in reaction) were serially diluted in DMSO (2% DMSO final concentration) and then mixed with either recombinant serine protease domain of HGFA [Z. Han, P. K. Harris, D. E. Jones, R. Chugani, T. Kim, M. Agarwal, W. Shen, S. A. Wildman, J. W. Janetka, Acs Med Chem Lett 2014, 5, 1219-1224], matriptase (Charles Craik, UCSF) or hepsin* (#4776-SE-010, R&D Systems, Minneapolis, Minn.) in black 384 well plates (Corning #3575. Corning, N.Y.). […] The final substrate concentrations for all assays were at the Km for the respective enzymes. Changes in fluorescence (excitation at 380 nm and emission at 460 nm) were measured at room temperature over time in a Biotek Synergy 2 plate reader (Winnoski, Vt.). Using GraphPad Prism version 6.04 software program, (GraphPad Software, San Diego, Calif., www.graphpad.com), a four parameter curve fit was used to determine the inhibitor IC50s from a plot of the mean reaction velocity versus the inhibitor concentration. The IC50 values represent the average of three separate experimental determinations.

[2] = target: T2, HGFA (Homo sapiens, UniProt Q04756); experiment: Fluorescent kinetic enzyme inhibitor assay of HGFA; conditions: read-out: HGFA Ki
T2 construct: His6 tag (N); seven amino acid spacer and seven amino acid TEV cleavage site (N); Honey Bee melittin signal peptide (N); made in house; host or cells: High 5 insect cells (baculovirus; virus raised in Sf9)
T2 sequence (Q04756 373-655): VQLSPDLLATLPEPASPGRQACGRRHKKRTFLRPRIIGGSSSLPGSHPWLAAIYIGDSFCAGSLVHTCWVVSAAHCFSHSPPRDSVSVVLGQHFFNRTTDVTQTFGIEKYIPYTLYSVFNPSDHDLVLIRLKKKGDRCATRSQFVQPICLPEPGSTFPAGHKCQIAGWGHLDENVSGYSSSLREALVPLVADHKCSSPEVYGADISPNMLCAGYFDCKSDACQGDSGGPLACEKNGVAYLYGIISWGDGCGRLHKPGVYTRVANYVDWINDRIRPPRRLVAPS
Source text: Using primers identified as SEQ ID NO 1, SEQ ID NO 2, and standard PCR protocols, the nucleotide sequence encoding amino acids 373-655 of HGFA was synthesized. This PCR product was cloned into the SfoI-HindIII sites of a modified pFastBac HT baculovirus expression vector (Addgene, Cambridge, Mass.). This vector contains a six amino His tag followed by a seven amino spacer and a seven amino acid TEV cleavage site placed immediately downstream of the Honey Bee melittin signal peptide. Using a modified Bac to Bac Expression System (Life Technologies, Carlsbad, Calif.), recombinant HGFA bacmids were obtained by transforming DH10Bac Escherichia coli cells. To obtain HGFA containing baculovirus, purified bacmids were transfected into Sf9 insect cells. After 5 days in culture at 27° C., media was harvested from transfected Sf9 cells. This media was used to prepare baculovirus infected insect cells (BIICs). These BIIICs were used to infect High 5 insect cells. Four days post infection, media was harvested and recombinant protein prepared as follows. Media was chilled to 4° C. and spun at 4000×g for 20 minutes (all subsequent steps were performed at 4° C. unless noted). Clarified media was passed first through a Whatman GF/B 1 um (#1821-047, GE Healthcare Life Sciences, Piscataway, N.J.) and then a 0.22 um PES membrane (#99955, TPP Techno Plastic Products AG, Trasadingen, Switzerland) and then concentrated using a Pall Centramate tangential flow system and Centramate T-series Cassette (#OS010T12, Pall Corporation, Port Washington, N.Y.). Concentrated media was then buffer exchanged in two steps, five volumes of 50 mM Na-phosphate, 500 mM NaCl, pH 6.2, followed by five volumes of 50 mM Na-phosphate, 500 mM NaCl, pH 7.5. The concentrated and buffered exchanged insect cell media was again filtered as above and made 25 mM imidazole (#1202, Sigma-Aldrich, St. Louis, Mo.) and was mixed with nickel agarose beads (#H-321-25, Gold Biotechnology, Inc., St. Louis Mo.). After mixing this slurry for 12 hours, nickel agarose beads were allowed to settle by gravity and then loaded into a column. Beads were washed with buffer (25 mM Na-phosphate, 500 mM NaCl, 25 mM imidazole, pH 8) and the bound protein eluted using (25 mM Na-phosphate, 500 mM NaCl, 250 mM imidazole, pH 8). Using a Amicon Ultra-4 Centrifugal filters (#UFC801008, Merck Millipore, Ltd., Tullagreen, Ireland), peak protein fractions were concentrated and run over a Superdex-200 10/300 GL column (GE Healthcare Life Sciences, Piscataway, N.J.) in 10 mM Tris, 200 mM NaCl, 0.2 mM EDTA, pH 8. HGFA containing fractions were pooled, concentrated, made 50% glycerol, and stored at minus 20° C. Protein was quantitated using a modified Lowry protein assay (#500-0006, Bio-Rad Laboratories, Hercules, Calif.).
as §1

[3] = target: T3, hepsin (Homo sapiens, UniProt P05981); experiment: Fluorescent kinetic enzyme inhibitor assay of hepsin; conditions: Fluorogenic Assay, read-out: Hepsin Ki
T3 construct: purchased R&D Systems 4776-SE-010
T3 sequence (P05981 163-417 limits assumed): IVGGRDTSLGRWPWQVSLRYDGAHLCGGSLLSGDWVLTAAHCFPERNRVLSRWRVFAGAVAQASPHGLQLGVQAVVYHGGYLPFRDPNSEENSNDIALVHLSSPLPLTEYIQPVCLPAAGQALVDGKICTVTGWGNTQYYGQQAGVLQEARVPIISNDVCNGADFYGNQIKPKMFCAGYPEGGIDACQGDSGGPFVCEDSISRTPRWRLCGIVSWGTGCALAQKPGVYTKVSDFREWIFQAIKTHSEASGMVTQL
T3 sequence (P05981 45-162 partner limits assumed): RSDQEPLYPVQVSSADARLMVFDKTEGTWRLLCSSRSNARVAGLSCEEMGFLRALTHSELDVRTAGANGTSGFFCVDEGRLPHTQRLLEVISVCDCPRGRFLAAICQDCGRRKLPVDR
Description: as §1

[4] = target: thrombin (Homo sapiens, UniProt P00734); experiment: Chromogenic kinetic enzyme assay of thrombin; conditions: for Ki: read-out: Thrombin Ki
Description: Inhibitors (11-pt serial dilutions, 0-20 μM final concentration) were serially diluted in DMSO (2% DMSO final concentration) and then mixed with recombinant thrombin (0.15 nM final concentration) or Factor Xa (0.35 nM final concentration) in TNC buffer (25 mM Tris, 150 mM NaCl, 5 mM CaCl2, 0.01% TRITON X-100, pH 8) using clear 384 well plates. […] Changes in absorbance at 405 nm were measured over time in a Biotek Synergy 2 plate (Winnoski, Vt.). Using GraphPad Prism version 6.04 software program, (GraphPad Software, San Diego, Calif., www.graphpad.com), a four parameter curve fit was used to determine the inhibitor IC50s from a plot of the mean reaction velocity versus the inhibitor concentration. Ki values were calculated from the IC50 values using the Cheng and Prusoff equation (Ki=IC50/(1+[S]/Km).

SMILES: Cc1ccc(S(=O)(=O)N[C@@H](Cc2cccc(C(=N)N)c2)C(=O)N2CCC(c3ccccc3)CC2)cc1 [Compound 25b, (S)-3-(2-(4-Methylphenylsulfonamido)-3-oxo-3-(4-phenylpiperidin-1-yl)propyl)benzimidamide]
- Ki ([1]; Table 9.1): 0.57 µM
- Ki ([2]; Table 9.1, Fluorogenic Assay): 19.9 µM
- Ki ([3]; Table 9.1): 4.8 µM

SMILES: Cc1ccc(S(=O)(=O)N[C@@H](Cc2cccc(C(=N)N)c2)C(=O)N2CCCC(C(=O)NCCc3ccccc3)C2)cc1 (stereo partly drawn) [Compound 25c, 1-((S)-3-(3-Carbamimidoylphenyl)-2-(4-methylphenylsulfonamido)propanoyl)-N-phenethylpiperidine-3-carboxamide]
- Ki ([1]; Table 9.2): 1.3 µM
- Ki ([2]; Table 9.2, Fluorogenic Assay): > 50 µM
- Ki ([3]; Table 9.2): 0.67 µM

SMILES: CCCCCCNC(=O)N1CCN(C(=O)[C@H](Cc2cccc(C(=N)N)c2)NS(=O)(=O)c2ccc3ccccc3c2)CC1 [Compound 25d, (S)-4-(3-(3-Carbamimidoylphenyl)-2-(naphthalene-2-sulfonamido)propanoyl)-N-hexylpiperazine-1-carboxamide]
- Ki ([1]; Table 9.1): 14.9 µM
- Ki ([1]; Table 9.1, listed as FMF-1-278-003): 14.9 µM
- Ki ([2]; Table 9.1, Fluorogenic Assay): > 50 µM
- Ki ([3]; Table 9.1): 1.3 µM and 1.28 µM

SMILES: N=C(N)c1cccc(C[C@H](NS(=O)(=O)c2ccc3ccccc3c2)C(=O)N2CCN(C(=O)c3csc4ccccc34)CC2)c1 [Compound 25e, (S)-3-(3-(4-(Benzo[b]thiophene-3-carbonyl)piperazin-1-yl)-2-(naphthalene-2-sulfonamido)-3-oxopropyl)benzimidamide]
- Ki ([1]; Table 9.1): 1.2 µM
- Ki ([2]; Table 9.1, Fluorogenic Assay): > 50 µM
- Ki ([3]; Table 9.1): 3.75 µM

SMILES: N=C(N)c1cccc(C[C@H](NS(=O)(=O)c2ccc3ccccc3c2)C(=O)N2CCC[C@@H](NC(=O)OCc3ccccc3)C2)c1 [Compound 25f, Benzyl (R)-1-((S)-3-(3-carbamimidoylphenyl)-2-(naphthalene-2-sulfonamido)propanoyl)piperidin-3-ylcarbamate]
- Ki ([1]; Table 9.2): 4.9 µM
- Ki ([2]; Table 9.2, Fluorogenic Assay): > 50 µM
- Ki ([3]; Table 9.2): 2.8 µM

SMILES: N=C(N)c1cccc(C[C@H](NS(=O)(=O)c2ccc3ccccc3c2)C(=O)N2CCN(c3ccccc3)CC2)c1 [Compound 25g, (S)-3-(2-(Naphthalene-2-sulfonamido)-3-oxo-3-(4-phenylpiperazin-1-yl)propyl)benzimidamide]
- Ki ([1]; Table 9.1): 1.8 µM
- Ki [2]: 18.3 µM
- Ki ([3]; Table 9.1): 7 µM

SMILES: CC(C)c1cc(C(C)C)c(S(=O)(=O)N[C@@H](Cc2cccc(C(=N)N)c2)C(=O)N2CCN(c3ccccc3)CC2)c(C(C)C)c1 [Compound 27, (S)-3-(3-Oxo-3-(4-phenylpiperazin-1-yl)-2-((2,4,6-triisopropylphenyl)sulfonamido)propyl)benzimidamide]
- Ki ([1]; Table 9.1): 0.76 µM
- Ki [2]: 22.2 µM
- Ki ([3]; Table 9.1): 7.4 µM

SMILES: CC(=O)N[C@@H](CCCCN)C(=O)N[C@@H](CCCNC(=N)N)C(=O)N[C@@H](CC(C)C)C(=O)N[C@@H](CCCNC(=N)N)C(=O)c1nc2ccc(C(=O)NCc3ccc(C(=O)O)cc3)cc2s1 [Compound 7164, Ac-KRLR(SEQ ID NO: 8)-kbt-Benzyl-3-COOH]
- Ki ([4]; Table 6.2, headed Fluorogenic Assay): 1.62 µM

SMILES: N=C(N)NCCC[C@H](NC(=O)[C@@H]1CCCCN1C(=O)[C@H](N)Cc1ccccc1)C(=O)Nc1ccc([N+](=O)[O-])cc1 [Compound S2238, D-Phe-Pip-Arg-pNA, reference compound]
- Km ([4]; read-out: Km of chromogenic substrate for thrombin): 14.5 µM

SMILES: Cc1nc(-c2cccc(C[C@H](NS(=O)(=O)c3ccc4ccccc4c3)C(=O)N3CCN(C(=O)NCc4ccccc4)CC3)c2)no1 [FMF-1-254-004]
- Ki ([1]; Table 9.3): > 10 µM
- Ki ([2]; Table 9.3, Fluorogenic Assay): > 50 µM
- Ki ([3]; Table 9.3): > 10 µM

SMILES: CC(C)c1cc(C(C)C)c(S(=O)(=O)N[C@@H](Cc2cccc(C(=N)N)c2)C(=O)N2CCN(C(=O)C3CCN(C(=N)N)CC3)CC2)c(C(C)C)c1 [JWJ-I-135]
- Ki ([4]; Table 9.4): > 2 µM
- Ki ([2]; Table 9.1, Fluorogenic Assay): 17.8 µM
